Assay [1] concerns the target T1, hSirt3 (Homo sapiens, UniProt Q9NTG7).
T1 sequence (Q9NTG7 1-399): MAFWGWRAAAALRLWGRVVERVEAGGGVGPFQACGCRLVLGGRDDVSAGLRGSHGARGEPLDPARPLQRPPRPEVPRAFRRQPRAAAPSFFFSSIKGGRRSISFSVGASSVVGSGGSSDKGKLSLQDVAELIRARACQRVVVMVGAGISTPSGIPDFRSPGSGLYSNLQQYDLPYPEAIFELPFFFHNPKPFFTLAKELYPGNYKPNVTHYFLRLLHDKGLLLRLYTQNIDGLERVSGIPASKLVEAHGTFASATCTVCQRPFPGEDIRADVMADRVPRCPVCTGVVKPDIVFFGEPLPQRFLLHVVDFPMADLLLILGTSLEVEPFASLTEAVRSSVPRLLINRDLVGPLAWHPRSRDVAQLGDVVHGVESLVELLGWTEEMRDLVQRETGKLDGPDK
In words: Mass spectrometry-based deacetylation assay, substrate […]-Ac. It counts as biochemical. Particulars: substrate GELLEAIK-Ac; SKLB-11A 100 μM.

The target in assay [2] is T2, SIRT3 L298G mutant (Homo sapiens, UniProt Q9NTG7, L298G).
T2 construct: made in house
T2 sequence (Q9NTG7 1-399 L298G): T1 sequence (Q9NTG7 1-399) with L298G
The assay is described as follows: BLI binding of SKLB-11A to mutant SIRT3 (L298G). The conditions noted are these: read-out: dissociation constant, L298G mutant SIRT3. The protocol:
SIRT3 protein at a concentration of 10 mg/mL was incubated with SKLB-11A (200 mM) in a mole ratio of 1:5 on ice for 1–3 h. The mixture was then centrifuged at 4 °C for 10 min, and the supernatant was used for crystallization. The precipitant solution consisted of 0.2 M Li2SO4, 1.0 M (NH4)2SO4, and 0.1 M Tris, at pH 7.5. Crystals emerged after approximately 3 days at 16 °C on a sitting-drop plate. The crystals were subsequently transferred to a cryoprotectant solution containing 20% glycerol and were flash-cooled in a nitrogen gas stream at 100 K for synchrotron radiation X-ray diffraction data collection. Site-directed mutagenesis. L298G Primer forward: 5′-[…]-GAACCGggc[…][…]-3′; reverse: 5′-gccCGGTT[…]-AAAACGA-3′; Site-directed mutagenesis was conducted using 2 x Phanta Flash Master Mix (Vazyme, P510). The mutated plasmid was sequenced by Sangon Biotech (Shanghai, China).
Binding kinetics of SIRT3 with various compounds were quantified using SSA biosensors on an Octet Red96 system (ForteBio). The assays occurred in 96-well plates, recording wavelength shifts in real-time. Ambient temperature was maintained at 25 °C, with plate agitation at 1000 rpm, and a reaction volume of 200 μL per well. SIRT3 protein and test compounds were prepared in phosphate-buffered saline (PBS, pH 7.4). […]

The target in assay [3] is T3, SIRT2 (Homo sapiens, UniProt Q8IXJ6).
T3 sequence (Q8IXJ6 1-389): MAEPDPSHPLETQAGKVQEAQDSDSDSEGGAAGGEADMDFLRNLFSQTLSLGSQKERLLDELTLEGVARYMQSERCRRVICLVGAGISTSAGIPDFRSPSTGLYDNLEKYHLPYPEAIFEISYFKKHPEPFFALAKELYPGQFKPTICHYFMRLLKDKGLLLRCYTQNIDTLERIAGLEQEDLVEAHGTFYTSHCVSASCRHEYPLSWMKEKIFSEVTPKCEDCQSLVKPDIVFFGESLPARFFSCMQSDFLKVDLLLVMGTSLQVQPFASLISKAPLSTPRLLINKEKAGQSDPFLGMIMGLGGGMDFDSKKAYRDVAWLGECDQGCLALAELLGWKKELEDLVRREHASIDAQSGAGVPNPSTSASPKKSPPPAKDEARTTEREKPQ
In words: SPR binding to SIRT2. As for the experimental part: The affinity of SKLB-11A for SIRT1, SIRT2, SIRT3, SIRT5, and SIRT6 was determined using a Reichert 4SPR system (Reichert Technologies, Depew, NY, USA). Proteins at 200 μg/mL were immobilized on a dextran-coated sensor chip (13206066) until reaching ≥12,000 response units (RUs). A dual-flow channel setup was used, reserving one channel for blank controls. SKLB-11A was introduced at varying concentrations for binding and subsequent dissociation kinetic analysis. Data acquisition was at 25 °C utilizing a PBST running buffer (pH 7.4). The equilibrium dissociation constant (K d) was computed from steady-state affinity measurements using TraceDrawer software.

The text below walks through data of article PMC12123458, “Unraveling Small Molecule-Mediated Sirtuin 3 Activation at a Distinct Binding Site for Cardioprotective Therapies” (ACS Central Science, 2025).

Where a chain is given by its changes, count along the chain named.

On to `COC(=O)c1c(N)n(Cc2ccc(F)cc2)c2nc3ccccc3nc12` [SKLB-11A, Methyl 2-amino-1-(4-fluorobenzyl)-1H-pyrrolo[2,3-b]quinoxaline-3-carboxylate], for which the “catalytic efficiency of SIRT3 deacetylation (MS assay)” value in assay [1] is recorded as “significantly increased the catalytic efficiency”. Moreover, the Kd in assay [2] is 167 µM; in assay [3] (SPR), above 200 µM. For the same compound, the “affinity for SIRT2 lower than its affinity for SIRT3” value in assay [3] (SPR Kd ratio) is reported as “approximately 40 times”.
